{"source": "patent US6069156A", "about": "“Indole derivatives as cGMP-PDE inhibitors” (Fujisawa Pharmaceutical Co., Ltd., priority 1995, dated 2000)", "key": {"[1]": {"system": "blood flow of corpus spongiosum penis and corpus cavernosum penis", "test": "Impotence Model (c): penile blood flow in anesthetized beagle", "type": "in vivo, Male beagle", "protocol": "(c) Male beagle weighing 8.0-12.0 kg were anesthetized with pentobarbital sodium (35 mg/kg, i.v.). After tracheotomy, the animal was artificially ventilated using a volume-cycled ventilator. The femoral artery was cannulated for continuous blood pressure and heart rate monitoring. The femoral vein was cannulated for maintenance of anesthesia and administration of tested compound. Two laser-dopper probes were placed in the corpus spongiosum penis and corpus cavernosum penis for recording blood flow. After a period of stabilization of all parameters, tested compound was injected intravenously at a various concentration. […] The increase in blood flow reached a peak value of 55% of baseline and continued for longer than 15 minutes after the administration of said compound 1.0 mg/kg."}, "[2]": {"system": "Coronary vasospasm induced with vasopressin", "test": "Vasopressin Induced-vasospasm Model (ST segment depression)", "type": "in vivo, Male Donryu rats", "conditions": "10 mg/kg orally 30 minutes before vasopressin 0.2 iu/kg", "protocol": "Vasopressin Induced-vasospasm Model\nMale Donryu rats, weighing 160-200 g, were anesthetized intraperitoneally with sodium pentobarbital (60 mg/kg) 15 minutes before intravenous administration of vasopressin, and the femoral vein was cannulated with polyethylene tubing (diameter 0.8 mm). Coronary vasospasm was induced with vasopressin (0.2 iu/kg) dissolved in saline through the cannula in the femoral vein. The each test compound (10 mg/kg) was administered orally 30 minutes before the administration of vasopressin. The standard limb lead II of the electrocardiogram was recorded with an electrocardiograph. The depression of ST segment was measured as the difference in the amplitudes of the ST segment after and just before the administration of vasopressin. The amplitudes of ST segment were measured at intervals of 0.5 minutes for 5 minutes after administration of vasopressin."}, "[3]": {"system": "streptozotocin-induced diabetes mellitus", "test": "Diabetic Glomerulosclerosis Model (streptozotocin)", "type": "in vivo, Male SD rats", "protocol": "Diabetic Glomerulosclerosis Model\n6 weeks old Male SD rats were treated with streptozotocin (60 mg/kg i.v.) to induce diabetes mellitus. One week after streptozotocin treatment, test compound, 3.2, 10 mg/kg was started to be orally administered twice a day for 16 weeks."}, "[4]": {"conditions": "10 mg/kg orally twice a day for 16 weeks"}, "[5]": {"conditions": "3.2, 10 mg/kg orally twice a day for 16 weeks"}}}
{"molecule": "CCCc1c(C(=O)C(C)C)c2ccc(C(N)=O)cc2n1Cc1ccccc1Cl", "note": "[Example 6, 1-(2-chlorobenzyl)-3-isobutyryl-2-propylindole-6-carboxamide]", "values": [{"measurement": "duration of increase in blood flow", "setting": "[1]; 1.0 mg/kg intravenous", "result": "> 15", "unit": "min"}, {"measurement": "peak value of increase in blood flow (of baseline)", "setting": "[1]; 1.0 mg/kg intravenous", "result": 55, "unit": "%"}, {"measurement": "blood flow of corpus spongiosum penis and corpus cavernosum penis", "setting": "[1]; intravenous", "result": "increased in the blood flow of both corpus spongiosum penis and corpus cavernosum penis"}, {"measurement": "hemodynamic change", "setting": "[1]; intravenous", "result": "without hemodynamic change"}, {"measurement": "inhibiting activity (depression of ST segment)", "setting": "[2]", "result": "more than 50%"}, {"measurement": "4-hydroxyproline contents in renal cortex", "setting": "[3]; [4]", "result": "perfectly inhibited the increased 4-hydroxyproline contents in renal cortex"}, {"measurement": "reduction on average of the elimination of protein in urine", "setting": "[3]; [4]", "result": 37, "unit": "%"}, {"measurement": "valiance of RR intervals in cardioelectrography", "setting": "[3]; [4]", "result": "perfectly recovered the reduced valiance of RR intervals"}, {"measurement": "blood flow in ears", "setting": "[3]; [5]", "result": "improved the decreased blood flow in ears"}, {"measurement": "onset of diabetic cataract", "setting": "[3]; [5]", "result": "retarded the onset of diabetic cataract"}, {"measurement": "parameters reflecting the abnormalities of peripheral circulation", "setting": "[3]; [5]", "result": "improved the parameters reflecting the abnormalities of peripheral circulation"}, {"measurement": "skin temperature on foot pad", "setting": "[3]; [5]", "result": "raised the decreased skin temperature on foot pad"}]}
